Measured values as given in PubChem BioAssay (NCI).
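48-hour exposure; five concentrations; linearly interpolated endpoints. At the GI50, growth is halved. At the TGI there is no net growth.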

What was measured:
Assay in all cases: NCI-60 cell line screen, 48 h
EKVX NSCLC = tested on: EKVX NSCLC
OVCAR-3 ovarian = tested on: OVCAR-3 ovarian
786-0 renal = tested on: 786-0 renal
SK-MEL-28 melanoma = tested on: SK-MEL-28 melanoma
SNB-19 CNS = tested on: SNB-19 CNS
HL-60(TB) leukemia = tested on: HL-60(TB) leukemia
OVCAR-4 ovarian = tested on: OVCAR-4 ovarian
UO-31 renal = tested on: UO-31 renal
SF-539 CNS = tested on: SF-539 CNS

Compound	TGI (EKVX NSCLC) [µM]	TGI (OVCAR-3 ovarian) [µM]	TGI (786-0 renal) [µM]	TGI (SK-MEL-28 melanoma) [µM]	TGI (SNB-19 CNS) [µM]	TGI (HL-60(TB) leukemia) [µM]	TGI (OVCAR-4 ovarian) [µM]	TGI (UO-31 renal) [µM]	TGI (SF-539 CNS) [µM]	GI50 (EKVX NSCLC) [µM]	GI50 (OVCAR-3 ovarian) [µM]	GI50 (SK-MEL-28 melanoma) [µM]	GI50 (SNB-19 CNS) [µM]	GI50 (HL-60(TB) leukemia) [µM]	GI50 (OVCAR-4 ovarian) [µM]	GI50 (UO-31 renal) [µM]	GI50 (SF-539 CNS) [µM]
CN1CCN(C(=O)c2cn(Cc3cncn3Cc3ccc4c(c3)OCO4)cc2-c2cccc3ccccc23)CC1	> 100	> 91.3	> 86	63.6	> 100	23.2	> 100	> 100	> 72.8								
Nc1[nH]c(=O)nc2c1ncn2C1OC(CO)C(O)C1O (configuration not stated)	> 100	> 100	> 100	> 100	> 100	54.9	> 100	> 100									
CC(=O)n1[nH]c(=O)n(-c2ccc(Cl)cc2)c1=O	> 100	> 100	> 100	> 100	> 100	> 100	> 100	> 100									
CCC1(O)CC(CCN(Cc2ccccc2)C(=O)OCc2ccccc2)C(OCc2ccccc2)C1O (configuration not stated)	30.9	26.8	39.3	36.4	31.6		22	33.7									
CCC1(c2ccc(N3C(=O)c4cccc5cc([N+](=O)[O-])cc(c45)C3=O)cc2)CCC(=O)NC1=O (configuration not stated)	> 70.5	56.5	21.6	86.8	> 74.3		42.4	27.7									
CCOC(=O)c1c(N)sc2c1C(C(=O)OCC)CCCC2 (configuration not stated)	> 100		> 100	> 100	> 100	> 100		> 100									
CC(O)c1nc(C#N)c(N)o1 (configuration not stated)	> 100	> 100	> 100	> 100	> 100	> 100		> 100	> 100								
CC(C)(C)C1CCC2c3c([nH]c4ccccc34)C3C(=O)N(c4ccc([N+](=O)[O-])cc4)C(=O)C3C2C1 (configuration not stated)	> 100	28.4	18.9	> 100	67.5	34.7	71.9		42.7								
COc1cc2c[n+]3c4c(c2c(OC)c1OC)CCCC4CC3 (configuration not stated)	> 100	> 100	> 100	> 100	> 100		> 100	> 100									
O=c1[nH]c(=O)n(COC(CO)CO)cc1-c1ccccc1	> 100	> 100	> 100	> 100	> 100	> 100	> 100	> 100									
CCOC(=O)c1c(-c2ccc(OC)cc2)ccn1C	> 10	> 10	> 10	> 10	> 10		> 10	> 10	> 10								
CC(C)(C)C(=O)Nc1c(C=O)ccc2[nH]cnc12	> 100	> 100	> 100	> 100	> 100		> 100	> 100	> 100								
CCOP(=O)(/C=C/n1cc(C)c(=O)[nH]c1=O)OCC	> 100	> 100	> 100	> 100	> 100	> 100	> 100		> 100								
CC1=C(C)C(=O)C(C2=CC(=O)c3ccccc3C2=O)=C(C2=CC(=O)c3ccccc3C2=O)C1=O	> 72		> 58.1	23.5	> 36.5	12.3	42.8	25.4	> 100								
C/C(=C1\N=C(c2ccccc2)OC1=O)c1ccccc1	> 100	> 100		> 100	> 100	> 100	> 100	> 100	> 100								
O=C(Nc1ccccc1)N1CCN(C(=O)Nc2ccccc2)C1=S	> 100	> 100	> 100	> 100		> 100	> 100	60.7	41.5								
C/C(=N\Nc1nc2ccccc2s1)c1ccncn1	10.2		> 72.4	> 100	> 28.4		42.4	10.2	35.9								
C=C(C)C1CC(=O)C(C)=C(O)C1 (configuration not stated)	> 100		> 100	> 100	> 100	> 100	> 100	> 100	> 100								

Compound	TGI (EKVX NSCLC) [µM]	TGI (OVCAR-3 ovarian) [µM]	TGI (786-0 renal) [µM]	TGI (SK-MEL-28 melanoma) [µM]	TGI (SNB-19 CNS) [µM]	TGI (HL-60(TB) leukemia) [µM]	TGI (OVCAR-4 ovarian) [µM]	TGI (UO-31 renal) [µM]	TGI (SF-539 CNS) [µM]	GI50 (EKVX NSCLC) [µM]	GI50 (OVCAR-3 ovarian) [µM]	GI50 (SK-MEL-28 melanoma) [µM]	GI50 (SNB-19 CNS) [µM]	GI50 (HL-60(TB) leukemia) [µM]	GI50 (OVCAR-4 ovarian) [µM]	GI50 (UO-31 renal) [µM]	GI50 (SF-539 CNS) [µM]
N#Cc1c(-c2ccc([N+](=O)[O-])cc2)c(C#N)c(=O)n(NS(=O)(=O)c2ccccc2)c1S	> 100		> 100	> 100	> 100		> 100		46.1								
CC(=O)CC1(CBr)Nc2ccc([N+](=O)[O-])cc2NC1=O (configuration not stated)	> 100	> 100	> 100	> 100	> 100		> 100	> 100	> 100								
CN(CCCCCl)P(=O)(OCc1ccc([N+](=O)[O-])o1)OCC1OC(n2ccc(N)nc2=O)C(O)C1O (configuration not stated)		17.2	> 100	> 100	43.7	31.8	29.1	> 100	38.9								
COC(=O)C1=C(CCCCO[Si](C)(C)C(C)(C)C)NC(=O)N2[C@H](CCOCc3ccccc3)CC[C@@H]12	> 100	> 100	> 100	> 100	> 100		> 100	> 100	> 100								
COc1nc(Cl)nc(N[C@H](C)c2c3ccccc3cc3ccccc23)n1	29.6	23.5		10.2	31.1	58.8	13.7	31.8	33.8								
CCOC(=O)NC(=S)N(CC(=O)c1cc(OC)c(OC)c(OC)c1)c1ccc(Cl)cc1	> 100	> 100		> 100	> 100	> 100	> 100	> 100	> 100	62.4	> 100	75.8	> 100	65.7	60.6	48.9	> 100
O=C1c2cc3c(cc2-c2c1c1cc(F)c(F)cc1c(=O)n2CCCn1ccnc1)OCO3	> 100	1.52		> 100	> 100	16.6	> 100	0.814	0.0457	0.687	0.116	0.228	< 0.01	0.0113	0.27	0.0465	< 0.01
Oc1ccc(C(O)C2CCCCN2)cc1O (configuration not stated)	> 100	> 100	35.2	> 100	> 100		> 100	> 100	> 100								
COP(=O)(OC)OCN(C)CC/C=C(\C)CC/C=C(\C)CCC=C(C)C	63.3	29.9	31.3	32.6	25.6		> 100	28.3	30.3								
COc1ccc(CCNC(=O)Cc2ccccc2CO)cc1OC	> 100	> 100	> 100	> 100		> 100	> 100	> 100	> 100								
ClC1=NN=C(c2c[nH]c3ccccc23)CC1NCc1ccccc1 (configuration not stated)	> 100	> 100	> 100	> 100	> 100	> 100		> 100	> 100								
COc1ccc(N2C(=O)C3c4[nH]c5c(C)cccc5c4C4CCC(C(C)C)CC4C3C2=O)cc1 (configuration not stated)	40.6	28.4	19.5	31.5	> 100		42.3	31.4									
COC1/C=C/C(C)C(O)CC(O)/C=C/C(C)C(C(C)C(OC)C(C)CCC(=O)C(C)C(C/C=C/N(C)C=O)OC)OC(=O)/C=C/C=C(\C)CC(OC)CC2=CC(=O)O[C@@H](C(C)C(OC)C1)[C@H]2O (some centres not stated)	0.266	0.0106		0.155	0.155	0.252	1.54	0.0648	0.0172								
O=C1[C@@H]2[C@@H](CN3CN(c4ccccc4)N=C(c4ccccc4)[C@@]23c2ccccc2)C(=O)N1c1ccccc1	11	21.2	5.56	26	36.8	6.33	> 23.8	3.29									
CCc1nc(N)c2nc(-c3cccs3)oc2n1	> 100	> 100	> 100	> 100	> 100	> 100		> 100	> 100								
COc1cc2c(cc1OC)C(=O)N(c1ccc(OCCN3CCCC3)cc1)C2	> 100	> 100	> 100	> 100	> 100	> 100	> 100		> 100								
COC(=O)[C@]1(c2cc3ccccc3n2S(=O)(=O)c2ccccc2)CC2CN(C(=O)OCc3ccccc3)C1C1OC(C)(C)OC21 (some centres not stated)	> 100	> 100	> 100	> 100		> 100	> 100	> 100									
